Legend:
Assay type in all cases: physicochemical
[1] = Abciximab loading and elution in vitro
Method: In this study ^125I-labelled abciximab was loaded onto stents coated with either polymer 2.2 or as a comparison a bare stent (no polymer) by immersing the stents in a solution of 2 mg/ml drug in phosphate buffered saline containing 0.001% polysorbate 80 to assist dissolution for 30 minutes at room temperature. The stents were removed and wick dried. The stents were then placed into channels each forming part of a separate circuit of recirculating ([…]) phosphate buffered saline containing 1% albumin at 37° C. The level of 1251 label remaining on the stent was determined by measuring the level of label in the circulating PBS over a period of 24 or 48 hours and reported in percentage terms. The total loading of drug on stent was also determined and found to be about 5 μg per stent for the stents coated with polymer 2.2.

[2] = Heparin loading and release, polymer 2.1 coated stents
Method: This study investigated the ability of polymer 2.1 coated stents to take up and release a sample of unfractionated heparin with an average molecular weight of approx. 10000D.
Loading was carried out by immersion of the coated stents into a solution of heparin in PBS. A range of conditions were used to investigate the loading onto the stents.
Table 6 Summary of conditions and results of heparin loading and release Notes—*the time where released heparin reaches maximum; **the maximum weight of heparin released during a releasing experiment (see maximum point of the release profile, FIG. 2)

[3] = Radiolabelled (35S) heparin loading and elution, polymer 2.2 coated stents
Method: Radiolabelled (^35S) heparin (MW 8-10 kDa) was loaded onto stents coated with polymer 2.2, from a 2 mg/ml aqueous solution. To determine the total loading the stents were placed into liquid scintillant and coated for radioactivity. The mean uptake of heparin was 11 μg per stent. The stents were each placed into a volume of PBS to determine the rate of elution of heparin over a 4 hour period.

[4] = Loading of polymer films with FITC-Dextran; details: FITC-Dextran mwt 4400; polymer 1.1 and polymer 2.1 coatings
Method: Steel strips (1 cm×1.5 cm) were cleaned in dichloromethane for 10 minutes using the ultra-sonics bath. 200 ul of a 50 mg/ml polymer solution was evenly coated onto the steel strips. For each polymer sample seven steel strips were coated. Coated steel strips were then dried overnight in a oven at 70° C. to cure the polymer films.
Six of the coated steel strips were placed polymer side down into a well containing a 1 mg/ml drug solution. One control sample was not loaded with drug. The steel strips were submerged for 1 hour. The steel strips were then removed from the well and the excess drug removed by dabbing the surface very gently with tissue. The steel strips were then allowed to dry for a further half hour at room temperature. Each sample was then dipped quickly in clean PBS solution to remove excess drug from the coating. (3 secs dip). Each steel strip was then placed in 3 ml of PBS solution contained in vials. Each vial was then sonicated for 20 mins at a bath temperature of 35° C. in order to extract the drug from the polymer coating. Each solution was then measured using fluorescence spectroscopy to determine the amount of drug uptake
In order to study the effect of drug molecular weight on the amount loaded into a polymer coating, a compound with a variety of molecular weights which could be detected by fluorescence had to be identified. […]

[5] = Uptake of fluorescence labelled oligonucleotide on polymer 2.2 coated stent; details: polymer 2.2 coated stents; 30 minutes in 5 mg/ml solution in physiological saline
Method: Stents coated with polymer 2.2 were loaded with a 15-mer c-myc antisense oligonucleotide AACGTTGAGGGGCAT (sequence ID 2) labelled with a fluorescence label by immersing them for 30 minutes in a 5 mg/ml solution of the DNA in physiological saline.
The total loading was determined by placing 3 of the stents each into 3 ml PBS and sonicating for 30 minutes. The fluorescent label was quantified.

[6] = polymer 2.1 stent, loading 0.2 mg/ml, 30 min, released into 1 volume PBS
[7] = polymer 2.1 stent, loading 2.0 mg/ml, 30 min, released into 0.5 volume PBS
[8] = polymer 2.1 stent, loading 10 mg/ml, 5 min, released into 0.5 volume PBS

abciximab: antibody (MW about 50 kDa) to glycoprotein IIb/IIIa
Release time from stent ([1]; cationic polymer (2.2) vs bare stent, PBS with 1% albumin at 37° C.): released over a more extended time
Total loading of drug on stent ([1]; stents coated with polymer 2.2, 2 mg/ml, 30 minutes, room temperature): about 5 μg per stent

heparin
Release from the stents ([2]; polymer 2.1 coated stents): released from the stents over a prolonged period of time
Total loading ([2]; polymer 2.1 stent, loading 0.2 mg/ml, 30 min): 3.4 µg
Tmax (time where released heparin reaches maximum) [2, 6]: 15 min
Wmax (maximum weight of heparin released) [2, 6]: 0.73 µg
Tmax (time where released heparin reaches maximum) [2, 7]: 20 min
Wmax (maximum weight of heparin released) [2, 7]: 2.07 µg
Tmax (time where released heparin reaches maximum) [2, 8]: 10 min
Wmax (maximum weight of heparin released) [2, 8]: 13.93 µg
Mean uptake of heparin ([3]; 2 mg/ml aqueous solution): 11 μg per stent
Release pattern ([3]; elution into PBS over 4 hours): released initially as a burst
Time to 100% release of heparin ([3]; elution into PBS, extrapolation of 4 hour release data): about 24 hours

Fluorescein Iso Thiocyanate Dextran [FITC-Dextran]
Uptake into polymer coatings [4]: could not be detected

AACGTTGAGGGGCAT [15-mer c-myc antisense oligonucleotide]
Total loading [5]: about 20 μg per stent
